These compounds were tested against EBI2 (Homo sapiens, UniProt P32249) (assay: Cell-based luminescent assay (EBI2 modulation)). Settings: not given.
How it was run: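 Cells plated overnight at 37° C, then exposed to compound at 4-5 uM final with 80 nM 7a,25-OHC agonist for 60 min at 37° C. Luminescence read after 60 min detection at 25° C in the dark; values normalized to neutral and stimulator controls and plate-pattern corrected.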

Sequence of EBI2 (P32249 whole entry): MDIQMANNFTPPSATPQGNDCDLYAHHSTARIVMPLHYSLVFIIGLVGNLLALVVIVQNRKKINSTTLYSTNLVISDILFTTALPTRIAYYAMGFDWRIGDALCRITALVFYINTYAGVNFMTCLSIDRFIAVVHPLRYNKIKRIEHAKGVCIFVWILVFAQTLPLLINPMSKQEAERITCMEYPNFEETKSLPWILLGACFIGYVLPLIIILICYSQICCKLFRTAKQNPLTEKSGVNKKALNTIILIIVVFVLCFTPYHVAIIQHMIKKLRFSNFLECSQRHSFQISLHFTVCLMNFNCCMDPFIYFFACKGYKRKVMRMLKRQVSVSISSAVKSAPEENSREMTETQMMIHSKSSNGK

With `O=C(/C=C/c1ccc(Br)cc1)N1CCN(Cc2ccc(Cl)cc2)CC1` [Compound D1, (E)-3-(4-bromophenyl)-1-(4-(4-chlorobenzyl)piperazin-1-yl) prop-2-en-1-one] the IC50 was < 100 nM.

Same assay, conditions: cell-based luminescence; 7a,25-OHC final assay concentration 80 nM; 60 minutes incubation; read-out: IC50

`Cc1nc2ccc(C(=O)N3CCN(C(c4ccccc4)c4ccccc4)CC3)cc2[nH]1` [Compound C465, 4-(diphenylmethyl)piperazinyl 2-methylbenzimidazol-5-yl ketone] and `O=C(c1cc2ccccc2cn1)N1CCN(C(c2ccccc2)c2ccccc2)CC1` [Compound C468, 4-(diphenylmethyl)piperazinyl 3-isoquinolyl ketone] fall in the same range of IC50: 100 to 500 nM for the first, 100 to 500 nM for the second.

`O=C(C#Cc1ccccc1C(F)(F)F)N1CCN(Cc2ccc(Cl)cc2)CC1` [Compound C469, 1-{4-[(4-chlorophenyl)methyl]piperazinyl}-3-[2-(trifluoromethyl)phenyl]prop-2-yn-1-one] and `O=C(c1cc2cc(Cl)ccc2[nH]1)N1CCN(c2ccc(F)cc2)CC1` [Compound C470, 5-chloroindol-2-yl 4-(4-fluorophenyl)piperazinyl ketone] fall in the same range of IC50: 100 to 500 nM for the first, 100 to 500 nM for the second.

`O=C(c1ccc(Br)cc1)N1CCN(Cc2ccc(Cl)cc2)CC1` [Compound C472, 4-bromophenyl 4-[(4-chlorophenyl)methyl]piperazinyl ketone] and `COc1ccc(CN2CCN(C(=O)C#Cc3cccc(Cl)c3)CC2)cc1` [Compound C473, 3-(3-chlorophenyl)-1-{4-[(4-methoxyphenyl)methyl]piperazinyl}prop-2-yn-1-one] fall in the same range of IC50: 100 to 500 nM for the first, 100 to 500 nM for the second.

`O=C(Nc1cccc(I)c1)N1CCN(C(=O)c2cc3cc(Cl)ccc3[nH]2)CC1` [Compound C474, {4-[(5-chloroindol-2-yl)carbonyl]piperazinyl}-N-(3-iodophenyl)carboxamide] and `O=C(C#Cc1ccccc1C(F)(F)F)N1CCN(Cc2ccc(C(F)(F)F)cc2)CC1` [Compound C475, 3-[2-(trifluoromethyl)phenyl]-1-(4-{[4-(trifluoromethyl)phenyl]methyl}piperazinyl)prop-2-yn-1-one] fall in the same range of IC50: 100 to 500 nM for the first, 100 to 500 nM for the second.

`O=C(c1cc2cc(Cl)ccc2[nH]1)N1CCN(c2ccccc2F)CC1` [Compound C476, 5-chloroindol-2-yl 4-(2-fluorophenyl)piperazinyl ketone] and `O=C(Nc1ccc(F)cc1F)N1CCN(C(=O)c2cc3cc(Cl)ccc3[nH]2)CC1` [Compound C477, N-(2,4-difluorophenyl){4-[(5-chloroindol-2-yl)carbonyl]piperazinyl}carboxamide] fall in the same range of IC50: 100 to 500 nM for the first, 100 to 500 nM for the second.

`O=C(c1cc2ccccn2n1)N1CCN(C(c2ccccc2)c2ccccc2)CC1` [Compound C478, 4-(diphenylmethyl)piperazinyl 8-hydropyrazolo[1,5-a]pyridin-2-yl ketone] and `O=C(C=Cc1ccc2c(c1)OCO2)N1CCN(C(=O)c2ccc(F)cc2C(F)(F)F)CC1` [Compound C479, 3-(2H-benzo[3,4-d]1,3-dioxolan-5-yl)-1-(4-{[4-fluoro-2-(trifluoromethyl)phenyl]carbonyl}piperazinyl)prop-2-en-1-one] fall in the same range of IC50: 100 to 500 nM for the first, 100 to 500 nM for the second.

First: Cc1ccccc1/C=C/C(=O)N1CCN(S(=O)(=O)c2ccc(C(C)(C)C)cc2)CC1 [Compound C480, (2E)-1-(4-{[4-(tert-butyl)phenyl]sulfonyl}piperazinyl)-3-(2-methylphenyl)prop-2-en-1-one]
Second: O=C(/C=C/c1ccc(Cl)c(Cl)c1)N1CCN(Cc2ccc(C(F)(F)F)cc2)CC1 [Compound D3, (2E)-3-(3,4-dichlorophenyl)-1-(4-{[4-(trifluoromethyl)phenyl]methyl}piperazinyl)prop-2-en-1-one]
The IC50 of the first is higher: 100 to 500 nM for the first, < 100 nM for the second. The second is the more potent here.

`Cc1cc(C)c(S(=O)(=O)N2CCN(C(=O)/C=C/c3ccc(Br)cc3)CC2)c(C)c1` [Compound E1, (2E)-3-(4-bromophenyl)-1-{4-[(2,4,6-trimethylphenyl)sulfonyl]piperazinyl} prop-2-en-1-one] and `O=C(/C=C/c1ccc(F)cc1)N1CCN(S(=O)(=O)c2ccc(Br)cc2)CC1` [Compound E2, (2E)-1-{4-[(4-bromophenyl)sulfonyl]piperazinyl}-3-(4-fluorophenyl) prop-2-en-1-one] cannot be ordered by IC50: < 100 nM for the first, < 100 nM for the second.

`O=C(/C=C/c1ccc(F)cc1)N1CCN(S(=O)(=O)CCc2ccccc2)CC1` [Compound E3, (2E)-3-(4-fluorophenyl)-1-{4-[(2-phenylethyl)sulfonyl]piperazinyl}prop-2-en-1-one] and `COc1ccc(/C=C/C(=O)N2CCN(S(=O)(=O)c3ccccc3)CC2)cc1` [Compound E4, (2E)-3-(4-methoxyphenyl)-1-[4-(phenylsulfonyl)piperazinyl]prop-2-en-1-one] cannot be ordered by IC50: < 100 nM for the first, < 100 nM for the second.

`CC(=O)c1ccc(S(=O)(=O)N2CCN(C(=O)/C=C/c3ccc(Br)cc3F)CC2)cc1` [Compound E5, 4-({4-[(2E)-3-(4-bromo-2-fluorophenyl)prop-2-enoyl]piperazinyl}sulfonyl)-1-acetylbenzene] and `O=C(/C=C/c1ccc(Br)cc1)N1CCC(CNCc2ccc(C(F)(F)F)cc2)CC1` [Compound F2] cannot be ordered by IC50: < 100 nM for the first, < 100 nM for the second.

`O=C(NCC1CCN(C(=O)/C=C/c2ccc(Br)cc2)CC1)c1ccc(C(F)(F)F)cc1` [Compound F3, (E)-N-((1-(3-(4-bromophenyl)acryloyl)piperidin-4-yl)methyl)-4-(trifluoromethyl)benzamide] and “(2E)-1-(4-{[4-(tert-butyl)phenyl]sulfonyl}piperazinyl)-3-(4-bromophenyl)prop-2-en-1-one [Compound C150]” cannot be ordered by IC50: < 100 nM for the first, < 100 nM for the second.

“(2E)-1-[4-(2-(1,3-dihydroisobenzofuran-5-yl)ethyl)piperazinyl]-3-phenylprop-2-en-1-one [Compound C362]” and “(2E)-1-[4-(diphenylmethyl)piperazinyl]-3-(4-bromo-2-fluorophenyl)prop-2-en-1-one [Compound C24]” cannot be ordered by IC50: < 100 nM for the first, < 100 nM for the second.

“(2E)-1-[4-(diphenylmethyl)piperazinyl]-3-(4-bromophenyl)prop-2-en-1-one [Compound C27]” and “(2E)-1-[4-({[(3,5-difluorophenyl)methyl]amino}methyl)piperidyl]-3-(4-bromophenyl)prop-2-en-1-one [Compound C54]” cannot be ordered by IC50: < 100 nM for the first, < 100 nM for the second.

“(2E)-1-{4-[2-(2-fluorophenyl)ethyl]piperazinyl}-3-phenylprop-2-en-1-one [Compound C361]” and “(2E)-1-{4-[(2,4-difluorophenyl)carbonyl]piperazinyl}-3-(4-bromophenyl)prop-2-en-1-one [Compound C46]” cannot be ordered by IC50: < 100 nM for the first, < 100 nM for the second.

“(2E)-1-{4-[(2,5-difluorophenyl)methyl]piperazinyl}-3-phenylprop-2-en-1-one [Compound C350]” and “(2E)-1-{4-[(2,5-dimethoxyphenyl)sulfonyl]piperazinyl}-3-(4-fluorophenyl)prop-2-en-1-one [Compound C318]” cannot be ordered by IC50: < 100 nM for the first, < 100 nM for the second.

First: (2E)-1-{4-[(2-methylphenyl)methyl]piperazinyl}-3-phenylprop-2-en-1-one [Compound C394]
Second: (2E)-1-{4-[(3,5-dimethylphenyl)methyl]piperazinyl}-3-phenylprop-2-en-1-one [Compound C340]
The IC50 of the first is higher: 100 to 500 nM for the first, < 100 nM for the second.

“(2E)-1-{4-[(3-methoxyphenyl)methyl]piperazinyl}-3-phenylprop-2-en-1-one [Compound C379]” and “(2E)-1-{4-[(3-nitrophenyl)methyl]piperazinyl}-3-phenylprop-2-en-1-one [Compound C387]” cannot be ordered by IC50: < 100 nM for the first, < 100 nM for the second.

“(2E)-1-{4-[(4-bromophenyl)sulfonyl]piperazinyl}-3-(4-chloro-2-fluorophenyl)prop-2-en-1-one [Compound C388]” and “(2E)-3-(4-bromophenyl)-1-(4-heptanoylpiperazinyl)prop-2-en-1-one [Compound C80]” cannot be ordered by IC50: < 100 nM for the first, < 100 nM for the second.

“(2E)-3-(4-bromophenyl)-1-[4-({[(4-chlorophenyl)methyl]amino}methyl)piperidyl]prop-2-en-1-one [Compound C74]” and “(2E)-3-(4-bromophenyl)-1-[4-({[(4-fluorophenyl)methyl]amino}methyl)piperidyl]prop-2-en-1-one [Compound C47]” cannot be ordered by IC50: < 100 nM for the first, < 100 nM for the second.

“(2E)-3-(4-bromophenyl)-1-{4-[({[3-fluoro-4-(trifluoromethyl)phenyl]methyl}amino)methyl]piperidyl} prop-2-en-1-one [Compound C121]” and “(2E)-3-(4-ethoxyphenyl)-1-[4-(phenylsulfonyl)piperazinyl]prop-2-en-1-one [Compound C313]” cannot be ordered by IC50: < 100 nM for the first, < 100 nM for the second.

First: (2E)-3-(4-fluorophenyl)-1-[4-(naphthylsulfonyl)piperazinyl]prop-2-en-1-one [Compound C345]
Second: (2E)-3-phenyl-1-[4-(4-pyridylmethyl)piperazinyl]prop-2-en-1-one [Compound C466]
The IC50 of the first is lower: < 100 nM for the first, 100 to 500 nM for the second. The first is the more potent here.

First: (2E)-3-phenyl-1-[4-benzylpiperazinyl]prop-2-en-1-one [Compound C337]
Second: (2E)-3-phenyl-1-piperazinylprop-2-en-1-one [Compound C444]
The IC50 of the first is lower: < 100 nM for the first, 100 to 500 nM for the second.

“N-(4-bromophenyl){4-[(5-chloroindol-2-yl)carbonyl]piperazinyl}carboxamide [Compound C445]” and “benzo[d]furan-2-yl 4-(phenylethyl)piperazinyl ketone [Compound C405]” fall in the same range of IC50: 100 to 500 nM for the first, 100 to 500 nM for the second.

First: piperazinyl 5-nitroindol-2-yl ketone [Compound C134]
Second: tert-butyl 4-(indol-2-ylcarbonyl)piperazinecarboxylate [Compound C414]
The IC50 of the first is lower: < 100 nM for the first, 100 to 500 nM for the second. The first is the more potent here.

“{1-[(5-chloroindol-2-yl)carbonyl](4-piperidyl)}(4-chlorophenyl) [Compound C462]” was tested, and the IC50 was 100 to 500 nM.
